Measurements taken from ChEMBL document CHEMBL1240372, “Murine model of a disseminated infection by the novel fungus Fonsecaea monophora and successful treatment with posaconazole” (Antimicrob Agents Chemother, 2010).
Values after ≈ are worked out from the molar mass of the structure shown. Active and inactive are the calls of the source. No cut-off for these calls is given here.

Experiments:
Fonsecaea monophora [1] = experiment: Antifungal activity against 1 x 10^6 CFU Fonsecaea monophora CBS 269.37 infected in […] OF1 mouse assessed as reduction in fungal load in lung at 1.5 mg/kg, ip qd administered 1 day after infection for 7 days; format: functional, organism-based; set-up: dose 1.5 mg/kg
Fonsecaea monophora [2] = experiment: Antifungal activity against 1 x 10^6 CFU Fonsecaea monophora CBS 269.37 infected in […] OF1 mouse assessed as reduction in fungal load in spleen at 1.5 mg/kg, ip qd administered 1 day after infection for 7 days; format: functional, organism-based; set-up: dose 1.5 mg/kg
[3] = Drug level in 1 x 10^6 CFU Fonsecaea monophora CBS 269.37 infected OF1 mouse serum at 1.5 mg/kg, ip qd administered 1 day after infection measured on day 6 after 4 hrs of last treatment; format: ADME, organism-based; set-up: dose 1.5 mg/kg, route intraperitoneal; conditions: read-out: Drug uptake
Fonsecaea monophora [4] = experiment: Antifungal activity against 2 x 10^5 CFU Fonsecaea monophora CBS 117236 infected in […] OF1 mouse assessed as reduction in fungal load in spleen at 1.5 mg/kg, ip qd administered 1 day after infection for 7 days; format: functional, organism-based; set-up: dose 1.5 mg/kg
Fonsecaea monophora [5] = experiment: Antifungal activity against 1 x 10^6 CFU Fonsecaea monophora CBS 269.37 infected in […] OF1 mouse assessed as reduction in fungal load in kidney at 1.5 mg/kg, ip qd administered 1 day after infection for 7 days; format: functional, organism-based; set-up: dose 1.5 mg/kg
Fonsecaea monophora [6] = experiment: Antifungal activity against Fonsecaea monophora CBS 117236; format: functional
Fonsecaea monophora [7] = experiment: Antifungal activity against Fonsecaea monophora CBS 269.37; format: functional
Fonsecaea monophora [8] = experiment: Antifungal activity against 2 x 10^5 CFU Fonsecaea monophora CBS 117236 infected in […] OF1 mouse assessed as reduction in fungal load in kidney at 1.5 mg/kg, ip qd administered 1 day after infection for 7 days; format: functional, organism-based; set-up: dose 1.5 mg/kg
Fonsecaea monophora [9] = experiment: Antifungal activity against 1 x 10^6 CFU Fonsecaea monophora CBS 269.37 infected in OF1 mouse assessed as increase in mouse survival at 1.5 mg/kg, ip qd administered 1 day after infection for 7 days; format: functional, organism-based; set-up: dose 1.5 mg/kg
Fonsecaea monophora [10] = experiment: Antifungal activity against 2 x 10^5 CFU Fonsecaea monophora CBS 117236 infected in […] OF1 mouse assessed as reduction in fungal load in lung at 1.5 mg/kg, ip qd administered 1 day after infection for 7 days; format: functional, organism-based; set-up: dose 1.5 mg/kg
[11] = Drug level in 1 x 10^6 CFU Fonsecaea monophora CBS 269.37 infected OF1 mouse brain at 50 mg/kg, po bid administered 1 day after infection measured on day 6 after 4 hrs of last treatment; format: ADME, organism-based; set-up: dose 50 mg/kg, route oral; conditions: read-out: Drug uptake
Fonsecaea monophora [12] = experiment: Antifungal activity against 2 x 10^5 CFU Fonsecaea monophora CBS 117236 infected in po dosed OF1 mouse assessed as reduction in fungal load in kidney at 25 mg/kg, po bid administered 1 day after infection for 7 days; format: functional, organism-based; set-up: dose 25 mg/kg
Fonsecaea monophora [13] = experiment: Antifungal activity against 2 x 10^5 CFU Fonsecaea monophora CBS 117236 infected in OF1 mouse assessed as increase in mouse survival at 25 mg/kg, po bid administered 1 day after infection for 7 days; format: functional, organism-based; set-up: dose 25 mg/kg
Fonsecaea monophora [14] = experiment: Antifungal activity against 1 x 10^6 CFU Fonsecaea monophora CBS 269.37 infected in po dosed OF1 mouse assessed as reduction in fungal load in spleen at 25 mg/kg, po bid administered 1 day after infection for 7 days; format: functional, organism-based; set-up: dose 25 mg/kg
[15] = Drug level in 1 x 10^6 CFU Fonsecaea monophora CBS 269.37 infected OF1 mouse serum at 50 mg/kg, po bid administered 1 day after infection measured on day 6 after 4 hrs of last treatment; format: ADME, organism-based; set-up: dose 50 mg/kg, route oral; conditions: read-out: Drug uptake
Fonsecaea monophora [16] = experiment: Antifungal activity against 2 x 10^5 CFU Fonsecaea monophora CBS 117236 infected in po dosed OF1 mouse assessed as reduction in fungal load in lung at 25 mg/kg, po bid administered 1 day after infection for 7 days; format: functional, organism-based; set-up: dose 25 mg/kg
Fonsecaea monophora [17] = experiment: Antifungal activity against 2 x 10^5 CFU Fonsecaea monophora CBS 117236 infected in po dosed OF1 mouse assessed as reduction in fungal load in spleen at 25 mg/kg, po bid administered 1 day after infection for 7 days; format: functional, organism-based; set-up: dose 25 mg/kg
Fonsecaea monophora [18] = experiment: Antifungal activity against 1 x 10^6 CFU Fonsecaea monophora CBS 269.37 infected in po dosed OF1 mouse assessed as reduction in fungal load in kidney at 25 mg/kg, po bid administered 1 day after infection for 7 days; format: functional, organism-based; set-up: dose 25 mg/kg
Fonsecaea monophora [19] = experiment: Antifungal activity against 1 x 10^6 CFU Fonsecaea monophora CBS 269.37 infected in po dosed OF1 mouse assessed as reduction in fungal load in lung at 25 mg/kg, po bid administered 1 day after infection for 7 days; format: functional, organism-based; set-up: dose 25 mg/kg
Fonsecaea monophora [20] = experiment: Antifungal activity against 1 x 10^6 CFU Fonsecaea monophora CBS 269.37 infected in OF1 mouse assessed as increase in mouse survival at 25 mg/kg, po bid administered 1 day after infection for 7 days; format: functional, organism-based; set-up: dose 25 mg/kg
Fonsecaea monophora [21] = experiment: Antifungal activity against 1 x 10^6 CFU Fonsecaea monophora CBS 269.37 infected in po dosed OF1 mouse assessed as reduction in fungal load in brain compound administered qd 1 day after infection for 7 days; format: functional, organism-based
Fonsecaea monophora [22] = experiment: Antifungal activity against 2 x 10^5 CFU Fonsecaea monophora CBS 117236 infected in OF1 mouse assessed as increase in mouse body weight at 10 mg/kg, po qd administered 1 day after infection for 7 days; format: functional, organism-based; set-up: dose 10 mg/kg
Fonsecaea monophora [23] = experiment: Antifungal activity against 2 x 10^5 CFU Fonsecaea monophora CBS 117236 infected in OF1 mouse assessed as increase in mouse survival at 10 mg/kg, po qd administered 1 day after infection for 7 days; format: functional, organism-based; set-up: dose 10 mg/kg
Fonsecaea monophora [24] = experiment: Antifungal activity against 2 x 10^5 CFU Fonsecaea monophora CBS 117236 infected in po dosed OF1 mouse assessed as reduction in fungal load in spleen compound administered qd 1 day after infection for 7 days; format: functional, organism-based
[25] = Drug level in 1 x 10^6 CFU Fonsecaea monophora CBS 269.37 infected OF1 mouse serum at 10 mg/kg, po qd administered 1 day after infection measured on day 6 after 4 hrs of last treatment; format: ADME, organism-based; set-up: dose 10 mg/kg, route oral; conditions: read-out: Drug uptake
Fonsecaea monophora [26] = experiment: Antifungal activity against 2 x 10^5 CFU Fonsecaea monophora CBS 117236 infected in po dosed OF1 mouse assessed as reduction in fungal load in kidney compound administered qd 1 day after infection for 7 days; format: functional, organism-based
Fonsecaea monophora [27] = experiment: Antifungal activity against 1 x 10^6 CFU Fonsecaea monophora CBS 269.37 infected in po dosed OF1 mouse assessed as reduction in fungal load in kidney compound administered qd 1 day after infection for 7 days; format: functional, organism-based
Fonsecaea monophora [28] = experiment: Antifungal activity against 2 x 10^5 CFU Fonsecaea monophora CBS 117236 infected in OF1 mouse assessed as increase in mouse body weight at 20 mg/kg, po qd administered 1 day after infection for 7 days; format: functional, organism-based; set-up: dose 20 mg/kg
Fonsecaea monophora [29] = experiment: Antifungal activity against 2 x 10^5 CFU Fonsecaea monophora CBS 117236 infected in OF1 mouse assessed as increase in mouse survival at 20 mg/kg, po qd administered 1 day after infection for 7 days; format: functional, organism-based; set-up: dose 20 mg/kg
Fonsecaea monophora [30] = experiment: Antifungal activity against 2 x 10^5 CFU Fonsecaea monophora CBS 117236 infected in po dosed OF1 mouse assessed as reduction in fungal load in brain compound administered qd 1 day after infection for 7 days; format: functional, organism-based
[31] = Drug level in 1 x 10^6 CFU Fonsecaea monophora CBS 269.37 infected OF1 mouse serum at 20 mg/kg, po qd administered 1 day after infection measured on day 6 after 4 hrs of last treatment; format: ADME, organism-based; set-up: dose 20 mg/kg, route oral; conditions: read-out: Drug uptake
Fonsecaea monophora [32] = experiment: Antifungal activity against 2 x 10^5 CFU Fonsecaea monophora CBS 117236 infected in po dosed OF1 mouse assessed as reduction in fungal load in lung compound administered qd 1 day after infection for 7 days; format: functional, organism-based
Fonsecaea monophora [33] = experiment: Antifungal activity against 1 x 10^6 CFU Fonsecaea monophora CBS 269.37 infected in po dosed OF1 mouse assessed as reduction in fungal load in spleen compound administered qd 1 day after infection for 7 days; format: functional, organism-based
[34] = Drug level in 1 x 10^6 CFU Fonsecaea monophora CBS 269.37 infected OF1 mouse brain at 20 mg/kg, po qd administered 1 day after infection measured on day 6 after 4 hrs of last treatment; format: ADME, organism-based; set-up: dose 20 mg/kg, route oral; conditions: read-out: Drug uptake
Fonsecaea monophora [35] = experiment: Antifungal activity against 2 x 10^5 CFU Fonsecaea monophora CBS 117236 infected in OF1 mouse assessed as increase in mouse survival at 40 mg/kg, po qd administered 1 day after infection for 7 days; format: functional, organism-based; set-up: dose 40 mg/kg
Fonsecaea monophora [36] = experiment: Antifungal activity against 1 x 10^6 CFU Fonsecaea monophora CBS 269.37 infected in po dosed OF1 mouse assessed as reduction in fungal load in lung compound administered qd 1 day after infection for 7 days; format: functional, organism-based
Fonsecaea monophora [37] = experiment: Antifungal activity against 1 x 10^6 CFU Fonsecaea monophora CBS 269.37 infected in OF1 mouse assessed as increase in mouse survival at 20 mg/kg, po qd administered 1 day after infection for 7 days; format: functional, organism-based; set-up: dose 20 mg/kg
[38] = Drug level in 1 x 10^6 CFU Fonsecaea monophora CBS 269.37 infected OF1 mouse serum at 40 mg/kg, po qd administered 1 day after infection measured on day 6 after 4 hrs of last treatment; format: ADME, organism-based; set-up: dose 40 mg/kg, route oral; conditions: read-out: Drug uptake
Fonsecaea monophora [39] = experiment: Antifungal activity against 1 x 10^6 CFU Fonsecaea monophora CBS 269.37 infected in OF1 mouse assessed as increase in mouse survival at 40 mg/kg, po qd administered 1 day after infection for 7 days; format: functional, organism-based; set-up: dose 40 mg/kg
[40] = Drug level in 1 x 10^6 CFU Fonsecaea monophora CBS 269.37 infected OF1 mouse brain at 10 mg/kg, po qd administered 1 day after infection measured on day 6 after 4 hrs of last treatment; format: ADME, organism-based; set-up: dose 10 mg/kg, route oral; conditions: read-out: Drug uptake
[41] = Drug level in 1 x 10^6 CFU Fonsecaea monophora CBS 269.37 infected OF1 mouse brain at 40 mg/kg, po qd administered 1 day after infection measured on day 6 after 4 hrs of last treatment; format: ADME, organism-based; set-up: dose 40 mg/kg, route oral; conditions: read-out: Drug uptake

## C[C@@H]1[C@H](O)[C@@H](C)/C=C/C=C/C=C/C=C/C=C/C=C/C=C/[C@H](O[C@@H]2O[C@H](C)[C@@H](O)[C@H](N)[C@@H]2O)C[C@@H]2O[C@](O)(C[C@@H](O)C[C@@H](O)[C@H](O)CC[C@@H](O)C[C@@H](O)CC(=O)O[C@H]1C)C[C@H](O)[C@H]2C(=O)O [AMPHOTERICIN B]
Fonsecaea monophora [1]
  Activity: Active
Fonsecaea monophora [2]
  Activity: Active
[3]
  concentration at 4 h: 6450 ng/mL
Fonsecaea monophora [4]
  Activity: Active
Fonsecaea monophora [5]
  Activity: Active
Fonsecaea monophora [6]
  MIC: 1 µg/mL (≈ 1.08 µM)
Fonsecaea monophora [7]
  MIC: 1 µg/mL (≈ 1.08 µM)
Fonsecaea monophora [8]
  Activity: Active
Fonsecaea monophora [9]
  Activity: Active
Fonsecaea monophora [10]
  Activity: Active

## CCC(C)n1ncn(-c2ccc(N3CCN(c4ccc(OCC5COC(Cn6cncn6)(c6ccc(Cl)cc6Cl)O5)cc4)CC3)cc2)c1=O (stereo not given) [ITRACONAZOLE]
[11]
  concentration at 4 h: 6880 ng/g
Fonsecaea monophora [12]
  Activity: Active
Fonsecaea monophora [13]
  Activity: inactive
Fonsecaea monophora [14]
  Activity: Active
Fonsecaea monophora [6]
  MIC: 0.25 µg/mL (≈ 0.354 µM)
[15]
  concentration at 4 h: 7320 ng/mL
Fonsecaea monophora [7]
  MIC: 0.5 µg/mL (≈ 0.709 µM)
Fonsecaea monophora [16]
  Activity: Active
Fonsecaea monophora [17]
  Activity: Active
Fonsecaea monophora [18]
  Activity: Active
Fonsecaea monophora [19]
  Activity: Active
Fonsecaea monophora [20]
  Activity: inactive

## CC[C@@H]([C@H](C)O)n1ncn(-c2ccc(N3CCN(c4ccc(OC[C@@H]5CO[C@@](Cn6cncn6)(c6ccc(F)cc6F)C5)cc4)CC3)cc2)c1=O [POSACONAZOLE]
Fonsecaea monophora [21]
  Activity: Dose-dependent effect
Fonsecaea monophora [22]
  Activity: Active
Fonsecaea monophora [23]
  Activity: Active
Fonsecaea monophora [24]
  Activity: Dose-dependent effect
[25]
  concentration at 4 h: 5170 ng/mL
Fonsecaea monophora [26]
  Activity: Dose-dependent effect
Fonsecaea monophora [27]
  Activity: Dose-dependent effect
Fonsecaea monophora [28]
  Activity: Active
Fonsecaea monophora [29]
  Activity: Active
Fonsecaea monophora [30]
  Activity: Dose-dependent effect
[31]
  concentration at 4 h: 6350 ng/mL
Fonsecaea monophora [32]
  Activity: Dose-dependent effect
Fonsecaea monophora [33]
  Activity: Dose-dependent effect
[34]
  concentration at 4 h: 2840 ng/g
Fonsecaea monophora [35]
  Activity: Active
Fonsecaea monophora [6]
  MIC: 0.12 µg/mL (≈ 0.171 µM)
Fonsecaea monophora [36]
  Activity: Dose-dependent effect
Fonsecaea monophora [37]
  Activity: Active
[38]
  concentration at 4 h: 9720 ng/mL
Fonsecaea monophora [7]
  MIC: 0.25 µg/mL (≈ 0.357 µM)
Fonsecaea monophora [39]
  Activity: Active
[40]
  concentration at 4 h: 2020 ng/g
[41]
  concentration at 4 h: 6730 ng/g
